Measured values as given in US9226503B2, “Composition and method for attraction of emerald ash borer Agrilus planipennis fairmaire (coleoptera: buprestidae)” (Her Majesty the Queen in Right of Canada, as represented by …, priority 2011, dated 2016).

Legend:
A. planipennis [1] = assay: Field trapping experiment 2 (2009), purple prism traps, Ontario; assay type: in vivo, Agrilus planipennis; details: as compared to the Phoebe oil alone
Description: Field trapping. Three trapping experiments were carried out in green ash plantations (F. pennsylvanica Marsch) with low-to-moderate A. planipennis populations about 40 km southeast of Sarnia, Ontario (42° 58′ 0 N, 82° 24′ 0 W) in 2008, 2009 and 2010. Trees at these sites were generally healthy in appearance with low or no signs of decline, and only a small number of trees had obvious signs/symptoms of infestation by A. planipennis. In Ontario sites, trees were 20-25 years old, 4-6 m tall, 10-15 cm in diameter, and spaced about 2 m apart within a row and 2.5 m between rows. In 2010, the trapping experiment was replicated at four sites in Michigan, USA, in addition to the sites in Ontario. Sites in Michigan were 10-100 years old, 10-30 m tall, 15-70 cm in diameter, and located in a mixed woodlot. […] Traps were checked every 2 weeks and A. planipennis were collected, counted and sexed. […]
The effect of each attractant on mean catch of female and male A. planipennis was analyzed independently using ANOVA and a randomized complete block design. Sites were analyzed separately in 2009 due to differences in sex ratios. In 2010, sites in Ontario were analyzed separately from those in Michigan due to the considerable differences in stand conditions and height of traps with respect to the ash canopy. […]

A. planipennis [2] = assay: Field trapping experiment 1 (2008), purple prism traps, Ontario; assay type: in vivo, Agrilus planipennis
Description: Field trapping. Three trapping experiments were carried out in green ash plantations (F. pennsylvanica Marsch) with low-to-moderate A. planipennis populations about 40 km southeast of Sarnia, Ontario (42° 58′ 0 N, 82° 24′ 0 W) in 2008, 2009 and 2010. Trees at these sites were generally healthy in appearance with low or no signs of decline, and only a small number of trees had obvious signs/symptoms of infestation by A. planipennis. In Ontario sites, trees were 20-25 years old, 4-6 m tall, 10-15 cm in diameter, and spaced about 2 m apart within a row and 2.5 m between rows. In 2010, the trapping experiment was replicated at four sites in Michigan, USA, in addition to the sites in Ontario. […] Traps were checked every 2 weeks and A. planipennis were collected, counted and sexed.
Experiment 1, conducted in Ontario in 2008, was designed to test for attractiveness of (3Z)-lactone (Bartelt et al. 2007), alone and in combination with two types of host volatiles: bark sesquiterpenes (Crook et al. 2008) and a binary blend of green leaf volatiles ((3Z)-hexenol and (2E)-hexenol) (Poland et al. 2005, de Groot et al. 2008). […] We selected Phoebe oil because it contained two additional sesquiterpenes that had been detected in ash trees and appeared to be more attractive than Manuka oil (Crook et al. 2008) and the (3Z)-hexenol and (2E)-hexenol combination based on results from de Groot et al. (2008). […]

SMILES | number of male or female A. planipennis captured, effect of lactone alone or with Phoebe oil (A. planipennis [1]) | trap captures compared to unbaited controls (A. planipennis [2])
O=C1C/C=C\CCCCCCCCO1 [(3Z)-lactone, (3Z)-dodecen-12-olide] | neither (3Z) nor (3E)-lactone alone, or in combination with Phoebe oil, significantly increased | not significantly attractive
O=C1C/C=C/CCCCCCCCO1 [(3E)-lactone, (3E)-dodecen-12-olide] | neither (3Z) nor (3E)-lactone alone, or in combination with Phoebe oil, significantly increased | –
